According to ChEMBL document CHEMBL1134223, “Design of non-peptide CCK2 and NK1 peptidomimetics using 1-(2-nitrophenyl)thiosemicarbazide as a novel common scaffold” (Bioorg Med Chem Lett, 2001):

Columns and labels:
B2 bradykinin receptor = biological target: T1, B2 bradykinin receptor (Rattus norvegicus, UniProt P25023); experiment: In vitro binding affinity against Bradykinin receptor B2 in rat NG 108-15 neuroblastoma-glioma hybrid cell membranes using [3H]BK binding assay
T1 sequence (P25023 whole entry): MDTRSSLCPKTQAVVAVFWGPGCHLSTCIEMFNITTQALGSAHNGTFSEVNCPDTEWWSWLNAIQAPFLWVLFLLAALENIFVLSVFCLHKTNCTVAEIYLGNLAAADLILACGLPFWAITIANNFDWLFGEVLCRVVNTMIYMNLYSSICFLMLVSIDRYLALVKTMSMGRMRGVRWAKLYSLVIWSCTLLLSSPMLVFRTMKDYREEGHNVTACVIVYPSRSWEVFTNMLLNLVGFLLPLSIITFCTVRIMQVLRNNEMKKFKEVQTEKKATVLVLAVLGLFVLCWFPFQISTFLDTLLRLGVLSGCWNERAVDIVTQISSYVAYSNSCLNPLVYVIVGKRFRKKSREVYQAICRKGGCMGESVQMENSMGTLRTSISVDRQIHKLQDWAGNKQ

Substance-P receptor [1] = biological target: Substance-P receptor (Rattus norvegicus, UniProt P14600); experiment: In vitro binding affinity against Tachykinin receptor 1 in rat whole forebrain membranes using [3H][Sar9Met(O2)]-SP binding assay; format: cell membranes, Membrane
Substance-P receptor (Rattus norvegicus, UniProt P14600), sequence (P14600 whole entry): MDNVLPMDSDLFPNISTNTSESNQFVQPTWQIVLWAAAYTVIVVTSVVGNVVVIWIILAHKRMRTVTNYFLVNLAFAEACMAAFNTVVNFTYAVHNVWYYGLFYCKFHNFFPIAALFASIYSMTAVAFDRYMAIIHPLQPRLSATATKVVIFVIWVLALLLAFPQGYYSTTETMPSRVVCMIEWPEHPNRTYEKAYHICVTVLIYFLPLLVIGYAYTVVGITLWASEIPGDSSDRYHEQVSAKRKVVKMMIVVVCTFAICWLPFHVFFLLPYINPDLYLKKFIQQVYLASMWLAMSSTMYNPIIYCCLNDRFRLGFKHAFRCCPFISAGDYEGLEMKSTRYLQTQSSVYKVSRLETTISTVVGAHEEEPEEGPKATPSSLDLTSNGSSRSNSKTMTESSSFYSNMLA

[2] = biological target: T2, Gastrin/cholecystokinin type B receptor (Mus musculus, UniProt P56481); experiment: In vitro binding affinity against Cholecystokinin type B receptor in mouse cerebral cortical membranes using [125I]Tyr(SO3H)27]-CCK-8 binding assay; format: cell membranes
T2 sequence (P56481 whole entry): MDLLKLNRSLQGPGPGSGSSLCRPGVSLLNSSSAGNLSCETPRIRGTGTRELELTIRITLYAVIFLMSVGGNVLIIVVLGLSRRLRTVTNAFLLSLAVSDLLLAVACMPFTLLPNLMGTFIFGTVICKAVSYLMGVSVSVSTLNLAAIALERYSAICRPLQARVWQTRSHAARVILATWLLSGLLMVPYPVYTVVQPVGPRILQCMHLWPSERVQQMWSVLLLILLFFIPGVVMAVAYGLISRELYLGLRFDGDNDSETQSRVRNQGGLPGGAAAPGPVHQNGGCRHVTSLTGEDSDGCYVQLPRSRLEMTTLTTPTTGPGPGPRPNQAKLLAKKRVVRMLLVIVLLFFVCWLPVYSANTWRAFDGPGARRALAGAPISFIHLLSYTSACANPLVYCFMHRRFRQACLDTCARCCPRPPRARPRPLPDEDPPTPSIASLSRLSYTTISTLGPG

Substance-P receptor [3] = biological target: Substance-P receptor (Cavia porcellus, UniProt P30547); experiment: In vitro binding affinity against Tachykinin receptor 1 in guinea pig ileum using organ bath assay; format: tissue-based
Substance-P receptor (Cavia porcellus, UniProt P30547), sequence (P30547 whole entry): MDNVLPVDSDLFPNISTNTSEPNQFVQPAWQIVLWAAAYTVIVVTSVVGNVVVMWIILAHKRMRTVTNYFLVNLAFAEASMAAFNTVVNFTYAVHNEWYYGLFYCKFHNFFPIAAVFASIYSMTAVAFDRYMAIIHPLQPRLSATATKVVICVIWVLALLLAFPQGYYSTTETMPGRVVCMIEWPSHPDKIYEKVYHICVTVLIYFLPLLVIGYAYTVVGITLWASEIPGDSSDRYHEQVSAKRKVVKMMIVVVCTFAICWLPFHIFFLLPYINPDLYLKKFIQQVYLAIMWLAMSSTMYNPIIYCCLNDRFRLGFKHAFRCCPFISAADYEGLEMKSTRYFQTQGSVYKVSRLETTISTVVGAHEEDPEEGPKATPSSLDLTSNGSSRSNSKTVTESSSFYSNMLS

| SMILES | IC50 (B2 bradykinin receptor) [µM] | IC50 (Substance-P receptor [1]) [µM] | IC50 [2] [µM] | IC50 (Substance-P receptor [3]) [µM] |
| --- | --- | --- | --- | --- |
| CSCCNS(=O)(=O)c1ccc(N/N=C(\S)N2CCC[C@@H]2C(=O)NCc2ccccc2)c([N+](=O)[O-])c1 | > 100 | > 100 | – | – |
| O=C(O)CNS(=O)(=O)c1ccc(NNC(=S)NCCc2c[nH]c3ccccc23)c([N+](=O)[O-])c1 | > 100 | – | 46 | – |
| O=C(O)c1ccccc1NS(=O)(=O)c1ccc(N/N=C(/S)NCCc2c[nH]c3ccccc23)c([N+](=O)[O-])c1 | > 100 | – | 4.5 | – |
| O=C(O)c1ccc(NS(=O)(=O)c2ccc(N/N=C(/S)NCCc3c[nH]c4ccccc34)c([N+](=O)[O-])c2)cc1 | > 100 | – | 10 | – |
| O=C(O)CN(Cc1ccccc1)S(=O)(=O)c1ccc(N/N=C(/S)NC(c2ccccc2)c2ccccc2)c([N+](=O)[O-])c1 | 0.41 | – | 1.9 | – |
| CSCCNS(=O)(=O)c1ccc(N/N=C(\S)N2CCC[C@H]2C(=O)NC(c2ccccc2)c2ccccc2)c([N+](=O)[O-])c1 | > 100 | – | – | 0.98 |
| O=C(O)CN(CCc1ccccc1)S(=O)(=O)c1ccc(N/N=C(/S)NCCc2c[nH]c3ccccc23)c([N+](=O)[O-])c1 | > 100 | – | 6 | – |
| O=C(O)CN(Cc1ccccc1)S(=O)(=O)c1ccc(NNC(=S)NCCc2c[nH]c3ccccc23)c([N+](=O)[O-])c1 | > 100 | – | 1.8 | – |
| O=C(O)CCN(Cc1ccccc1)S(=O)(=O)c1ccc(NNC(=S)NCCc2c[nH]c3ccccc23)c([N+](=O)[O-])c1 | > 100 | – | 0.51 | – |
| O=C(NC(c1ccccc1)c1ccccc1)[C@@H]1CCCN1/C(S)=N/Nc1ccccc1[N+](=O)[O-] | > 100 | > 100 | – | 1.67 |
| O=C(O)CCCN(Cc1ccccc1)S(=O)(=O)c1ccc(N/N=C(/S)NCCc2c[nH]c3ccccc23)c([N+](=O)[O-])c1 | > 100 | – | 2.43 | – |
| O=C(O)c1cccc(NC(=S)NNc2ccc(S(=O)(=O)NCCc3c[nH]c4ccccc34)cc2[N+](=O)[O-])c1 | > 100 | – | 31 | – |
| COc1ccccc1CN[C@H]1CCCN[C@H]1c1ccccc1 [CP-99994] | – | – | – | 0.0029 |

Second part, the compound after the results:

| IC50 (B2 bradykinin receptor) [µM] | IC50 (Substance-P receptor [1]) [µM] | IC50 [2] [µM] | IC50 (Substance-P receptor [3]) [µM] | SMILES |
| --- | --- | --- | --- | --- |
| > 100 | – | 11 | – | O=C(O)CCCNS(=O)(=O)c1ccc(N/N=C(/S)NCCc2c[nH]c3ccccc23)c([N+](=O)[O-])c1 |
| > 100 | – | 24 | – | O=C(O)c1ccc(NC(=S)NNc2ccc(S(=O)(=O)NCCc3c[nH]c4ccccc34)cc2[N+](=O)[O-])cc1 |
| > 100 | – | 3.6 | – | O=C(O)c1cccc(NS(=O)(=O)c2ccc(NNC(=S)NCCc3c[nH]c4ccccc34)c([N+](=O)[O-])c2)c1 |
| > 100 | > 100 | – | – | CSCCNS(=O)(=O)c1ccc(N/N=C(\S)N2CCC[C@H]2C(=O)NCc2ccccc2)c([N+](=O)[O-])c1 |
| > 100 | – | 4 | – | O=C(O)c1cccc(N(Cc2ccccc2)S(=O)(=O)c2ccc(NNC(=S)NCCc3c[nH]c4ccccc34)c([N+](=O)[O-])c2)c1 |
| > 100 | > 100 | – | 2.31 | O=C(NC(c1ccccc1)c1ccccc1)[C@H]1CCCN1/C(S)=N/Nc1ccccc1[N+](=O)[O-] |
| > 100 | – | 24 | – | O=C(O)CCNS(=O)(=O)c1ccc(N/N=C(/S)NCCc2c[nH]c3ccccc23)c([N+](=O)[O-])c1 |
| > 100 | – | – | 7.93 | CSCCNS(=O)(=O)c1ccc(N/N=C(\S)N2CCC[C@@H]2C(=O)NC(c2ccccc2)c2ccccc2)c([N+](=O)[O-])c1 |
| > 100 | – | 6 | – | O=C(O)CN(CCCc1ccccc1)S(=O)(=O)c1ccc(N/N=C(/S)NCCc2c[nH]c3ccccc23)c([N+](=O)[O-])c1 |
